Results on eleven compounds are retold here after ChEMBL document CHEMBL1201862, “PubChem BioAssay data set” (2004).

SMILES strings stand for the structures.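 Tested at 5 concentrations; 48 h exposure; 96-well plates; endpoints linearly interpolated, else capped at highest concentration. Here, GI50 denotes the concentration required for 50% inhibition of growth.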 Active and inactive are the calls of the source. Cut-off read from the data, not from the text of the source: active = GI50 up to about 1.1 µM and inactive = higher.

Some test systems named below: NCI-H226; A549; SW-620; LXFL 529; SNB-75; TK-10; OVCAR-8; HCC 2998; IGROV-1; OVCAR-4; U-251; OVCAR-3; EKVX; HCT-15; SK-MEL-2; SNB-19; M14; RPMI-8226; SN12C.
What all share (assay): NCI tumour cell line growth inhibition, 48 h

For `CN(/N=C/c1ccnc2ccccc12)c1ccc([N+](=O)[O-])cc1[N+](=O)[O-]`, the GI50 is > 100 µM (inactive) in the experiment on NCI-H226; > 100 µM (inactive) with A549; > 100 µM (inactive) with SW-620; 42.6 µM (inactive) in the experiment with LXFL 529; 20.7 µM (inactive) in the experiment on SNB-75; > 100 µM (inactive) with TK-10. For the same compound, the GI50 with OVCAR-8 is > 100 µM (inactive); with HCC 2998, > 100 µM (inactive); in the experiment on IGROV-1, > 100 µM (inactive); in the experiment on OVCAR-4, > 100 µM (inactive); with U-251 it was > 100 µM (inactive); with OVCAR-3, 19.7 µM (inactive). In addition, the GI50 is > 100 µM (inactive) in the experiment on EKVX; > 100 µM with HCT-15; 28.6 µM (inactive) in the experiment with SK-MEL-2; 77.4 µM (inactive) with SNB-19; > 100 µM (inactive) in the experiment on M14; > 100 µM (inactive) in the experiment with RPMI-8226. In addition, in the experiment on SN12C, the GI50 was > 100 µM (inactive).

Regarding `Nc1ccc(C(=O)NN2C(=O)C(Cl)C2c2ccccc2O)cc1` (stereo not drawn), the GI50 is 69.2 µM (inactive) with NCI-H226; 93.1 µM (inactive) with A549; 73.6 µM (inactive) in the experiment with SW-620; 54.2 µM (inactive) with LXFL 529; 52.2 µM (inactive) with SNB-75; > 100 µM (inactive) in the experiment with TK-10. Moreover, the GI50 is 42.3 µM (inactive) in the experiment on OVCAR-8; 18.7 µM (inactive) in the experiment on HCC 2998; > 100 µM (inactive) with IGROV-1; 60.1 µM (inactive) with OVCAR-4; 36 µM (inactive) with U-251; 31.7 µM (inactive) with OVCAR-3. In addition, the GI50 in the experiment with EKVX was 49.3 µM (inactive); with HCT-15, 35.2 µM; in the experiment with SK-MEL-2, > 100 µM (inactive); in the experiment with SNB-19, > 100 µM (inactive); in the experiment on M14, 24 µM (inactive); in the experiment on RPMI-8226, 44.5 µM (inactive). In addition, the GI50 in the experiment on SN12C was > 100 µM (inactive).

Turning to `C/C=C/C=N/N(c1nnc(-c2ccccc2)c(-c2ccccc2)n1)S(=O)(=O)c1ccc(C)cc1`, the GI50 is 15.3 µM (inactive) in the experiment on NCI-H226; 12 µM (inactive) in the experiment with A549; 4.05 µM (inactive) in the experiment with SW-620; 7.21 µM (inactive) in the experiment on LXFL 529; 3.61 µM (inactive) with SNB-75; 14.9 µM (inactive) with TK-10. The GI50 is 5.53 µM (inactive) in the experiment on OVCAR-8; 17 µM (inactive) with HCC 2998; 13.1 µM (inactive) in the experiment with IGROV-1; 13.2 µM (inactive) in the experiment with OVCAR-4; 4.04 µM (inactive) with U-251; 12.6 µM (inactive) with OVCAR-3. The GI50 in the experiment with EKVX is 17.8 µM (inactive); in the experiment with HCT-15 it was 5.14 µM; in the experiment with SK-MEL-2, 11.4 µM (inactive); with M14, 4.69 µM (inactive); in the experiment on RPMI-8226, 4.19 µM (inactive); in the experiment with SN12C, 8.13 µM (inactive).

`COC(=O)/C(C#N)=C1\NN=NN1CCCN1CCOCC1`: the GI50 in the experiment with NCI-H226, in the experiment on A549, with SW-620, with LXFL 529, with SNB-75 and in the experiment on TK-10 was > 100 µM (inactive) throughout. The GI50 in the experiment with OVCAR-8, in the experiment on HCC 2998, with IGROV-1, in the experiment with U-251, with OVCAR-3 and in the experiment on EKVX was > 100 µM (inactive) in each case. The GI50 with HCT-15 was > 100 µM; with SNB-19, > 100 µM (inactive); with M14, > 100 µM (inactive); in the experiment on RPMI-8226, > 100 µM (inactive); with SN12C it was > 100 µM (inactive).

`O=C(O)CSc1nnc(-c2ccccc2)[nH]1`: the GI50 is > 100 µM (inactive) in the experiment with NCI-H226; > 100 µM (inactive) in the experiment on A549; > 100 µM (inactive) in the experiment with SW-620; > 100 µM (inactive) in the experiment with LXFL 529; 37.2 µM (inactive) in the experiment on SNB-75; > 100 µM (inactive) with TK-10. Moreover, the GI50 in the experiment on OVCAR-8, in the experiment with HCC 2998, in the experiment on IGROV-1, in the experiment with OVCAR-4, with U-251 and with OVCAR-3 was > 100 µM (inactive) throughout. Moreover, the GI50 in the experiment with EKVX is > 100 µM (inactive); in the experiment on HCT-15, > 100 µM; in the experiment with SK-MEL-2, > 100 µM (inactive); in the experiment with SNB-19, > 100 µM (inactive); in the experiment on M14 it was > 100 µM (inactive); with RPMI-8226, > 100 µM (inactive). Also, the GI50 with SN12C was > 100 µM (inactive).

`CC(C)(C)OC(=O)Cc1ccc2c(ccn2Cc2ccccc2)c1`: the GI50 was 35.7 µM (inactive) in the experiment on NCI-H226; 48.8 µM (inactive) in the experiment on A549; 67.1 µM (inactive) in the experiment with SW-620; 46.7 µM (inactive) in the experiment on LXFL 529; > 100 µM (inactive) in the experiment with SNB-75; 79.6 µM (inactive) in the experiment with TK-10. The GI50 was 60.3 µM (inactive) with OVCAR-8; > 100 µM (inactive) in the experiment with HCC 2998; > 100 µM (inactive) with IGROV-1; 83.6 µM (inactive) in the experiment on OVCAR-4; 19.8 µM (inactive) in the experiment on U-251; 56.2 µM (inactive) in the experiment on OVCAR-3. Moreover, the GI50 is 81.8 µM (inactive) in the experiment with EKVX; 12.8 µM in the experiment with HCT-15; > 100 µM (inactive) in the experiment with SK-MEL-2; > 100 µM (inactive) in the experiment on SNB-19; > 100 µM (inactive) in the experiment on M14; 52.1 µM (inactive) with SN12C.

As for `C1CC2=C(C1)C1=S(S2)SC2=C1CCC2`, the GI50 in the experiment with NCI-H226, with A549, in the experiment with SW-620, with LXFL 529, with SNB-75 and in the experiment on TK-10 was > 100 µM (inactive) each time. For the same compound, the GI50 in the experiment on OVCAR-8, with HCC 2998, with IGROV-1, in the experiment on OVCAR-4, in the experiment on U-251 and in the experiment with OVCAR-3 was > 100 µM (inactive) each time. Also, the GI50 was > 100 µM (inactive) in the experiment on EKVX; > 100 µM in the experiment on HCT-15; > 100 µM (inactive) with SK-MEL-2; > 100 µM (inactive) in the experiment on SNB-19; > 100 µM (inactive) in the experiment on M14; > 100 µM (inactive) in the experiment on RPMI-8226. Besides, the GI50 in the experiment on SN12C is > 100 µM (inactive).

Regarding `C1OCC2S[C@@H]3COCO[C@@H]3C2O1` (stereo partly drawn), the GI50 in the experiment with NCI-H226, in the experiment with A549, in the experiment with LXFL 529, in the experiment with SNB-75, in the experiment with TK-10 and in the experiment on OVCAR-8 was > 100 µM (inactive) throughout. For the same compound, the GI50 is > 100 µM (inactive) in the experiment with HCC 2998; > 100 µM (inactive) with OVCAR-4; > 100 µM (inactive) with U-251; > 100 µM (inactive) with OVCAR-3; > 100 µM (inactive) in the experiment with EKVX; > 100 µM in the experiment with HCT-15. Moreover, the GI50 in the experiment on SNB-19, in the experiment with M14, in the experiment with RPMI-8226 and in the experiment with SN12C was > 100 µM (inactive) in each case.

Take `CN(C(=O)C1CC1)C1C2CN3CCC(O2)C13` (stereo not drawn): the GI50 in the experiment on NCI-H226, with A549, with SW-620, with LXFL 529, with SNB-75 and in the experiment on TK-10 was > 100 µM (inactive) in each case. The GI50 in the experiment with HCC 2998, with IGROV-1, in the experiment with OVCAR-4, in the experiment on U-251, in the experiment on OVCAR-3 and in the experiment with EKVX was > 100 µM (inactive) in each case. The GI50 with HCT-15 was > 100 µM; with SK-MEL-2, > 100 µM (inactive); in the experiment on SNB-19, > 100 µM (inactive); with M14 it was > 100 µM (inactive); in the experiment with RPMI-8226, > 100 µM (inactive); in the experiment on SN12C, > 100 µM (inactive).

In the case of `C(/C=C/N1CCCC1)=C\c1nc(N2CCCC2)c2ccccc2n1`, the GI50 in the experiment with NCI-H226 is 16.7 µM (inactive); in the experiment with A549, 48.5 µM (inactive); in the experiment with SW-620, 14.3 µM (inactive); in the experiment on LXFL 529, 14.7 µM (inactive); in the experiment on SNB-75, 16.6 µM (inactive); with TK-10, 41 µM (inactive). Also, the GI50 in the experiment with OVCAR-8 is 34.1 µM (inactive); with HCC 2998, 17.4 µM (inactive); with IGROV-1 it was 21.6 µM (inactive); with OVCAR-4 it was 13.9 µM (inactive); in the experiment on OVCAR-3, 15.7 µM (inactive); with EKVX, 20.1 µM (inactive). Also, the GI50 in the experiment with HCT-15 was 16.4 µM; with SK-MEL-2, 22.1 µM (inactive); with SNB-19, 18.5 µM (inactive); in the experiment on M14 it was 18 µM (inactive); with RPMI-8226, 17.4 µM (inactive); in the experiment on SN12C, 13.5 µM (inactive).

Consider `C/C(=N/O)c1sc(-c2nc(C)c(/C(C)=N\O)s2)nc1C`, for which the GI50 was > 100 µM (inactive) in the experiment on NCI-H226; > 100 µM (inactive) in the experiment with A549; > 100 µM (inactive) in the experiment with SW-620; > 100 µM (inactive) in the experiment on LXFL 529; 31.3 µM (inactive) with SNB-75; > 100 µM (inactive) with OVCAR-8. The GI50 in the experiment on HCC 2998, with IGROV-1, with OVCAR-4, with U-251, in the experiment on OVCAR-3 and in the experiment with EKVX was > 100 µM (inactive) each time. In addition, the GI50 is > 100 µM in the experiment with HCT-15; > 100 µM (inactive) in the experiment on SNB-19; > 100 µM (inactive) with M14; > 100 µM (inactive) with RPMI-8226; > 100 µM (inactive) with SN12C.
